Read-outs that look alike come from different tables or passages of the source.
Tests used:
[1] = tested on: 129S1 mice; assay: Survival study of antibiotic-exacerbated GVHD after bone marrow transplantation (P3A); type: in vivo; conditions: BM+T cells; piperacillin/tazobactam 100 mg/kg s.c. + P3A 20 mg/kg oral gavage three times per week from day 10; endpoint 30 days post-BMT; FIG. 4
Protocol: This experiment was conducted to assess the effect of SYN-004 administration on protecting and/or reducing GVHD severity associated with bone marrow transplantation.
129S1 mice were lethally irradiated and then transplanted with bone marrow cells (B6 donor bone marrow) at 5M and defined doses of splenic T lymphocytes from C57BL/6 mice at 2M. Both of these mice share the MHC-type H2b and thus represent a clinically relevant MHC-matched transplantation model.

[2] = tested on: Enterococcus; assay: 16S sequencing of stool at day 21 post-transplantation: Enterococcus monodomination (SYN-004); type: in vivo, 129S1 mice
Protocol: This experiment was conducted to assess the effect of SYN-004 administration on modulating and/or reducing Enterococcus monodomination. The experiment was also designed to assess whether SYN-004 administration could prevent the decrease of microbiome diversity in lethally irradiated mice having undergone a bone marrow transplantation.
129S1 mice were lethally irradiated and then transplanted with bone marrow cells (B6 donor bone marrow) at 5M and defined doses of splenic T lymphocytes from C57BL/6 mice at 2M. The mice were divided in three cohorts: (1) a cohort that received administration of saline; (2) a cohort that received administration of piperacillin/tazobactam; and (3) a cohort that received administration of piperacillin/tazobactam (Zosyn, abbreviated as ZO) and SYN-004 (P3A; abbreviated as Blact).
Stool samples were collected at day 21 post-transplantation and 16S sequencing analysis was performed.

[3] = Piperacillin levels in mouse stool after s.c. piperacillin/tazobactam with or without oral P3A; type: in vivo, mice; conditions: piperacillin/tazobactam 500 mg/kg s.c. twice per day for two days + P3A liquid formulation 10 mg/kg oral gavage twice per day for two days; FIG. 1
Protocol: Mice received a subcutaneous administration of 500 mg/kg piperacillin/tazobactam twice per day for two days. […] A control cohort of mice received neither piperacillin/tazobactam nor P3A via oral gavage.
After 2 days, mouse stool was evaluated for presence of piperacillin.

[4] = tested on: Firmicutes bacterial phylum; assay: 16S sequencing of mouse stool: Firmicutes level, piperacillin/tazobactam with or without P3A; type: in vivo, mice; conditions: FIG. 2
Protocol: (§1) Mice received a subcutaneous administration of 125 mg/kg piperacillin/tazobactam twice per day for two days. […] A control cohort of mice received neither piperacillin/tazobactam nor P3A via oral gavage. Another control cohort of mice received P3A only.

[5] = tested on: total bacteria; assay: 16S sequencing of mouse stool: total bacteria copies per gram of stool; type: in vivo, mice; conditions: FIG. 3
Protocol: as §1
16S sequencing analysis was also performed to evaluate the total bacteria copies present per gram of mouse stool.

[6] = tested on: Enterococcus; assay: 16S sequencing of mouse stool: Enterococcus monodomination, imipenem+cilastatin with or without SYN-006; type: in vivo, mice; conditions: FIG. 8; for largest bars (genus) in 16S analysis, post-antibiotic: post-abx; for Enterococcus monodominance in stool: vs imipenem+cilastatin only
Protocol: (§2) Next, experiments were conducted to assess the effect of SYN-006 (P2A) administration on modulating and/or reducing Enterococcus monodomination, and specifically, overgrowth of Enterococcus faecium, in imipenem-treated mice.
(§3) Mice received a subcutaneous administration of 100 mg/kg imipenem+cilastatin for two days, with stool samples collected on the third day. […] Stool samples were collected on day 3 and 16S sequencing analysis was performed.

[7] = tested on: 129S1 mice; assay: Survival study of antibiotic-exacerbated GVHD after bone marrow transplantation (P2A); type: in vivo; conditions: BM+T cells; imipenem+cilastatin 100 mg/kg s.c. + P2A 50 mg/kg oral gavage three times per week days 10-25; endpoint 40 days post-BMT; p=0.0096, Mantel-Cox test; FIG. 10
Protocol: This experiment was conducted to assess the effect of SYN-006 (P2A) administration on protecting and/or reducing GVHD severity associated with bone marrow transplantation.
129S1 mice were lethally irradiated and then transplanted with bone marrow cells (B6 donor bone marrow) at 5M and defined doses of splenic T lymphocytes from C57BL/6 mice at 2M. Both of these mice share the MHC-type H2^b and thus represent a clinically relevant MHC-matched transplantation model.

[8] = tested on: Enterococcus faecium; assay: Relative abundance of Enterococcus faecium in stool of imipenem-treated mice; type: in vivo; conditions: imipenem+cilastatin 100 mg/kg s.c. alone or with P2A 1, 10, 50 mg/kg oral gavage; FIG. 9
Protocol: as §2, §3

[9] = tested on: Firmicutes bacterial phylum; conditions: stool day 3, FIG. 7
Protocol: Experiments were conducted to determine whether a liquid formulation of SYN-006 (e.g., a beta-lactamase in a phosphate-buffered saline solution) could be delivered to the small and large intestine of mice via oral gavage.
Mice received a subcutaneous administration of 100 mg/kg imipenem+cilastatin for two days, with stool samples collected on the third day.
On day 3, mouse stool was collected.

[10] = piperacillin/tazobactam 125 mg/kg s.c. + P3A 10 mg/kg oral gavage, twice per day for two days
[11] = piperacillin/tazobactam alone, 125 mg/kg s.c. twice per day for two days

With “SYN-004: beta-lactamase with the amino acid sequence of SEQ ID NO: 1; D276N relative to P1A” the “survival (mortality), antibiotic-exacerbated GVHD” value [1] was “reduced antibiotic-exacerbated GVHD”, the “largest bars (genus) in 16S analysis” value ([2]; FIG. 5, Zosyn+SYN-004) was “Clostridium” and the “largest bars (genus) in 16S analysis” value ([2]; FIG. 6, BM (bone marrow) group, ZO+Blact) was “Enterococcus in the first two bars from the left and Clostridium in the next two bars from the left”. For the same molecule, the “largest bars (genus) in 16S analysis” value ([2]; FIG. 6, BM+T cells group, ZO+Blact) was “Clostridium”, the “Enterococcus monodominance in stool” value ([2]; piperacillin/tazobactam + SYN-004 vs piperacillin/tazobactam only, day 21 post-transplantation, FIG. 5 and 6) was “reduced Enterococcus monodominance” and the “amount of piperacillin in mouse stool” value [3] was “reduced”. The “fold abundance of Firmicutes in mouse stool” value (shortened to “fold abundance of Firmicutes”) [4, 10] was “recovered and protected” and the “total bacterial copies present in mouse stool” value [5, 10] was “decrease was reduced”.

In the case of “imipenem+cilastatin [reference compound]”, the “largest bars (genus) in 16S analysis, post-antibiotic” value (“largest bars … post-antibiotic” below) ([6]; imipenem group (no P2A)) is reported as “Enterococcus”.

For “piperacillin/tazobactam [reference compound]”, the “largest bars (genus) in 16S analysis” value ([2]; FIG. 5, Zosyn alone) was “Enterococcus”, the “largest bars (genus) in 16S analysis” value ([2]; FIG. 6, BM (bone marrow) group, ZO alone) was “Enterococcus” and the “largest bars (genus) in 16S analysis” value ([2]; FIG. 6, BM+T cells group, ZO alone) was “Enterococcus”. For the same molecule, the “abundance of Firmicutes in mouse stool” value [4, 11] was “reduced” and the “total bacterial copies present in mouse stool” value [5, 11] was “decreased”.

B1: SYN-006: beta-lactamase polypeptide with the sequence of SEQ ID NO: 6 (protein)
chain: ETGTISISQLNKNVWVHTELGYFNGEAVPSNGLVLNTSKGLVLVDSSWDNKLTKELIEMVEKKFQKRVTDVIITHAHADRIGGITALKERGIKAHSTALTAELAKNSGYEEPLGDLQTITSLKFGNTKVETFYPGKGHTEDNIVVWLPQYQILAGGCLVKSAEAKDLGNVADAYVNEWSTSIENVLKRYGNINSVVPGHGEVGDKGLLLHTLDLLK
modifications: Synthetic polymer.
With B1 the “largest bars … post-antibiotic” value ([6]; imipenem+P2A (1 mg) group) was “Enterococcus”, the “largest bars … post-antibiotic” value ([6]; imipenem+P2A (10 mg) group) was “Clostridium” and the “largest bars … post-antibiotic” value ([6]; imipenem+P2A (50 mg) group) was “Lactobacillus and Clostridium”. For the same molecule, the “Enterococcus monodominance in stool” value ([6]; imipenem+cilastatin 100 mg/kg s.c. + SYN-006 10 mg/kg oral gavage twice per day for two days) was “reduced Enterococcus monodominance”, the “Enterococcus monodominance in stool” value ([6]; imipenem+cilastatin 100 mg/kg s.c. + SYN-006 50 mg/kg oral gavage twice per day for two days) was “reduced Enterococcus monodominance” and the “survival (mortality), antibiotic-exacerbated GVHD” value [7] was “reduced antibiotic-exacerbated GVHD”. The “overgrowth (relative abundance) of Enterococcus faecium in mouse stool” value [8] was “prevents overgrowth of Enterococcus faecium”, the “fold abundance of Firmicutes” value ([9]; imipenem+cilastatin 100 mg/kg s.c. for two days + P2A 10 mg/kg oral gavage twice per day) was “recovered and protected” and the “fold abundance of Firmicutes” value ([9]; imipenem+cilastatin 100 mg/kg s.c. for two days + P2A 50 mg/kg oral gavage twice per day) was “recovered and protected”.

From patent US20220218800A1, “BETA-LACTAMASE COMPOSITIONS FOR TREATMENT OF GRAFT VERSUS HOST DISEASE” (Synthetic Biologics, Inc., priority 2019, published 2022)
